Where two headings read alike, the source gives them in different places. Ends that are not written are not given here.

Consider five compounds from publication PMC10435460, “Ligand recognition and G protein coupling of the human itch receptor MRGPRX1” (Nature Communications, 2023).

In assay [1] the target is T1, MRGPRX1 (Homo sapiens, UniProt Q96LB2).
T1 construct: we fused a BRIL tag at the N-terminus of full-length wild-type MRGPRX1; FLAG; expressed in transfected cells; host or cells: HEK293
T1 sequence (Q96LB2 whole entry, the tested form may be a part): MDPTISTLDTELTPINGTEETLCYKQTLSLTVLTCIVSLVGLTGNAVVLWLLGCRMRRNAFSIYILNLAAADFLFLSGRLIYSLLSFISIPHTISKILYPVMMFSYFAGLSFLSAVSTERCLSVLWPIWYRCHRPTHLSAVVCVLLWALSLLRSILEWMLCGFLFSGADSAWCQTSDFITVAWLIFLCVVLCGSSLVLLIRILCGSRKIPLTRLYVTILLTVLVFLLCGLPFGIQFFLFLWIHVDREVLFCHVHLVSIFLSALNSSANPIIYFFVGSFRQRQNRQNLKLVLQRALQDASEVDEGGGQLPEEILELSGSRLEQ
Nature of the assay: Ligand bias factor (β value), Gi vs Gq, BAM8-22 as reference. It counts as cell-based. The settings on record: Suppl Fig 11f-h. As for the experimental part: Human Embryonic Kidney 293 (HEK293) cells were obtained from the Cell Resource Center of Shanghai Institute for Biological Sciences (Chinese Academy of Sciences, Shanghai, China) and cultured in DMEM with 10% FBS for functional studies. Transient transfection in the current study was performed with Lipofectamine 2000 (Invitrogen), according to the manufacturer’s instructions. For studying the peptide-induced G-protein activation through MRGPRX1, G-protein BRET probes were generated according to previous publications[13],[30],[31]. HEK293 cells were transfected with plasmids MRGPRX1 and G-protein probes. After 24 h, cells were reseeded into a 96-well plate with a density of 30,000-50,000 cells per well and incubated for an additional 24 h at 37 °C. For peptide-stimulated activity measurement, the BRET signal between Rluc8 and GFP2 was recorded after the addition of peptide ligands (final concentration:10^−10 – 10^−3 M) and coelenterazine 400a. The BRET signal was calculated as the ratio of the GFP2 emission to the Rluc8 emission. […]
are presented as the mean ± SEM (n=3). All data were analyzed by two-sided one-way ANOVA with Turkey test. […] Both CNF-Tx2 and Chloroquine were assessed for Gi signaling (f) and Gq signaling (g). The bias factor (β value) of CNF-Tx2 and Chloroquine was calculated using BAM8-22 as the reference.
R3c). The β value was calculated according to formulas. […]

In assay [2] the target is T1, MRGPRX1. It counts as cell-based. Also noted: Emax: unit not given here. To be noted: for Δpec50: Fig 3d, CNF-Tx2 mutant peptide vs CNF-Tx2 WT; for Emax: Suppl Fig 9a, CNF-Tx2 WT and mutant peptides. As for the experimental part:
Human Embryonic Kidney 293 (HEK293) cells were obtained from the Cell Resource Center of Shanghai Institute for Biological Sciences (Chinese Academy of Sciences, Shanghai, China) and cultured in DMEM with 10% FBS for functional studies. Transient transfection in the current study was performed with Lipofectamine 2000 (Invitrogen), according to the manufacturer’s instructions. For studying the peptide-induced G-protein activation through MRGPRX1, G-protein BRET probes were generated according to previous publications[13],[30],[31]. HEK293 cells were transfected with plasmids MRGPRX1 and G-protein probes. After 24 h, cells were reseeded into a 96-well plate with a density of 30,000-50,000 cells per well and incubated for an additional 24 h at 37 °C. For peptide-stimulated activity measurement, the BRET signal between Rluc8 and GFP2 was recorded after the addition of peptide ligands (final concentration:10^−10 – 10^−3 M) and coelenterazine 400a. The BRET signal was calculated as the ratio of the GFP2 emission to the Rluc8 emission.

The subject of assay [3] is MRGPRX2. Nature of the assay: Gαi-Gγ dissociation assay (BRET). It counts as cell-based, human. The settings on record: Fig 1e. The text has this: Fig. 1 Cryo-EM structure of MRGPRX1-Gi1/Gq complexes. a Cryo-EM density map of the BAM8-22-MRGPRX1-Gi1/Gq complexes and CNF-Tx2-MRGPRX1-Gi1 complex. b EM density maps of BAM8-22 in MRGPRX1-Gi1/Gq complexes and CNF-Tx2 in MRGPRX1-Gi1 complex. BAM8-22 in MRGPRX1-Gi1/Gq complexes, hot pink/cyan; CNF-Tx2, light pink; MRGPRX1, cornflower blue, salmon, and medium aquamarine from left to right; Gαi, dark orange; Gαq, yellow; Gβ, wheat; Gγ, light blue; scFv16 (single-chain variable fragment), gray. c Cut-away view of the ligand-binding pocket in the BAM8-22-MRGPRX1-Gi1/Gq, CNF-Tx2-MRGPRX1-Gi1, PAMP-12-MRGPRX2-Gi1 and KCA-CB1-Gi1 complexes. d The binding modes of the peptide agonists of MRGPRX1 compared with MRGPRX2. e The selectivity of different ligands for MRGPRX1 and MRGPRX2 was evaluated using Gαi-Gγ dissociation assay. Data are mean ± SEM of three independent experiments (n = 3). ΔBRET indicates the difference between the BRET signal recorded from cells treated with ligand and that from cells treated with vehicle.
Human Embryonic Kidney 293 (HEK293) cells were obtained from the Cell Resource Center of Shanghai Institute for Biological Sciences (Chinese Academy of Sciences, Shanghai, China) and cultured in DMEM with 10% FBS for functional studies. […] The BRET signal was calculated as the ratio of the GFP2 emission to the Rluc8 emission.
(In BRET a luciferase serves as donor, and the signal depends on an acceptor being close.)

For the compound `CCN(CC)CCCC(C)Nc1ccnc2cc(Cl)ccc12` (stereo not shown) [Chloroquine, chloroquine], in assay [1], the “bias property, Gi vs Gq” value was “Gq bias ligand”.

In the case of “HSGILLAWSGPRNRAVRI-NH2 (C-terminus assumed) [F15A]”, the values for the Δpec50 in assay [2] (replicate 2) and in assay [2] (replicate 3) were -6.871 and -1.837, respectively. The values for the Emax in assay [2] (replicate 1) and in assay [2] (replicate 3) were -0.06154 and -0.06172, respectively.

As for “HSGILLAWSGPRNRF-NH2 (C-terminus assumed) [ΔVRI]”, the figures for the Δpec50 in assay [2] (replicate 2) and in assay [2] (replicate 3) were -0.3933 and -0.1993, respectively. Further, the Emax in assay [2] (replicate 1) is reported as 5.805; in assay [2] (replicate 2), 0.1588; in assay [2] (replicate 3), -0.003279. For the same compound, in assay [2] (compared to CNF-Tx2 wide-type peptide, Fig R4), the “effect of C-terminal truncation on MRGPRX1 activity” value is “almost abolished the activity of MRGPRX1”.

“Hemoglobin b-chain(34-42): hemoglobin β-chain fragment, peptide ligand of MRGPRX1 (VVYPWTQRF; UniProt P68871 34-42, looked up, fragment) [reference compound]”: in assay [2] (Suppl Fig 11c), the “potency and efficacy at MRGPRX1” value was “reasonable potency and efficacy”.

Take “bovine adrenal medulla peptide (BAM) 8-22 [BAM8-22]”: the “recognition by MRGPRX2” value in assay [3] is reported as “cannot be recognized by MRGPRX2”.
